This note sets out measurements from patent publication US12421212B2, “Substituted benzenecarboxamides as IL-17A modulators” (DiCE Alpha, Inc., priority 2019, dated 2025).

In this test the target is T1, IL-17A/A (Homo sapiens, UniProt Q16552).
T1 construct: purchased Genscript Z03228
T1 sequence (Q16552 24-155): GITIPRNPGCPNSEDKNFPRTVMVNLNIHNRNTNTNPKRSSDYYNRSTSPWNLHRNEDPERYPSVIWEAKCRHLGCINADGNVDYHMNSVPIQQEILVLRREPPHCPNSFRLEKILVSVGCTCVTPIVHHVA
Description: IL-17A/A HEK-Blue Cell Assay. It counts as cell-based. The following applies: HEK-Blue IL-17A reporter cell line, SEAP readout at A630, 20 hours incubation with IL-17A/A, top concentration 10 uM, 1 uM or 0.3 uM; for IC50: read-out: IL-17A/A inhibition (pIC50) (converted).

`CCc1nonc1C(=O)N[C@H](C(=O)Nc1ccc([C@H](C)[C@@H](NC(=O)c2ncns2)C(=O)N2CCN(C)CC2)cc1F)[C@H]1CC[C@H](C)CC1` [Compound 575]: the “IL-17A/A inhibition (pIC50)” value was “X3a (compounds were evaluated up to 0.3 uM and did not inhibit activity by >80%, however they showed some activity at 0.3 uM (less than 80% and more than 20%))”.

With `COc1cncc(C(F)(F)C(=O)N[C@H](C(=O)Nc2ccc([C@H](C)[C@@H](NC(=O)c3cnns3)C(=O)N3CCN(C)CC3)cc2F)C2CCCCC2)c1` [Compound 309], the IC50 is 10 to 100 nM.

Take `CCC(=O)N[C@@H](C(=O)N1CCN(C)CC1)[C@@H](C)c1ccc(NC(=O)C(NC(=O)c2nonc2CC)C(CC)c2ccc(Cl)cc2)c(F)c1` (single isomer, unassigned) [Compound 564]: the “IL-17A/A inhibition (pIC50)” value is “X2a (compounds were evaluated up to 1 uM and did not inhibit activity by >80%, however they showed some activity at 1 uM (less than 80% and more than 20%))”.

As for `CCC(=O)N[C@@H](C(=O)N1CCN(C)CC1)[C@@H](C)c1ccc(NC(=O)C(NC(=O)c2ccnn2CC)[C@@H](C)c2ccccc2)c(F)c1` (stereo partly drawn) [Compound 289], the IC50 is 10 to 100 nM.

Consider `COc1cncc(C(F)(F)C(=O)N[C@H](C(=O)Nc2ccc(C[C@@H](NC(=O)c3cnns3)C(=O)N3CCN(C)CC3)cc2F)C2CCCCC2)c1` [Compound 324], for which the IC50 is 10 to 100 nM.

`CCc1nonc1C(=O)N[C@H](C(=O)Nc1ccc([C@H](C)[C@@H](NC(=O)C(F)(F)CC)C(=O)N2CCN(C)[C@H](C)C2)cc1F)[C@H]1CC[C@H](C)CC1` [Compound 504]: the IC50 is < 10 nM.

With `CCn1nccc1C(=O)N[C@H](C(=O)Nc1ccc([C@H](C)[C@@H](NC(=O)C2(F)CC2)C(=O)N2CCN(C)CC2)cc1F)C1CCCCCC1` [Compound 326], the IC50 is 10 to 100 nM.

Consider `CCC(=O)N[C@H](Cc1ccc(NC(=O)[C@@H](NC(=O)c2ccnn2CC)C2CCCCC2)c(F)c1)C(=O)N1CC2(CN(C)C2)C1` [Compound 750], for which the “IL-17A/A inhibition (pIC50)” value is “X2b (compounds were evaluated up to 1 uM and inhibited activity at 1 uM by less than 20%)”.

`CCC(=O)N[C@H](Cc1ccc(NC(=O)[C@@H](NC(=O)c2ccnn2CC)c2ccccc2)c(F)c1)C(=O)N1CCN(C)CC1` [Compound 775]: the “IL-17A/A inhibition (pIC50)” value is “X1b (compounds were evaluated up to 10 uM and inhibited activity at 10 uM by less than 20%)”.

In the case of `CCC(=O)N[C@H](Cc1ccc(NC(=O)[C@@H](NC(=O)c2ccnn2CC)C2CCCCC2)c(F)c1)C(=O)N1CCN(Cc2ccccn2)CC1` [Compound 640], the IC50 is 100 to 10000 nM.

`CCC(=O)N[C@@H](C(=O)N1CCN(C)CC1)[C@@H](C)c1ccc(NC(=O)[C@@H](NC(=O)c2ccnn2CC)[C@H]2CC[C@H](C)CC2)cc1` [Compound 299]: the IC50 is 10 to 100 nM.

For the molecule `CCC(=O)N[C@H](Cc1ccc(NC(=O)[C@@H](NC(=O)c2ccnn2CC)c2cccc3ccccc23)c(F)c1)C(=O)N1CCN(C)CC1` [Compound 698], the “IL-17A/A inhibition (pIC50)” value was “X2b (compounds were evaluated up to 1 uM and inhibited activity at 1 uM by less than 20%)”.

`CCC(=O)N[C@H](Cc1ccc(NC(=O)[C@@H](NC(=O)C(F)(F)c2ccc(OC)nc2)C2CCCCC2)c(F)c1)C(=O)N1CCN(C)CC1` [Compound 203]: the IC50 was 100 to 10000 nM.

Consider `CCC(=O)N[C@@H](C(=O)N1CCN(C)CC1)[C@@H](C)c1ccc(NC(=O)[C@@H](NC(=O)c2cccn2CC2CC2)[C@H]2CC[C@H](C)CC2)c(F)c1` [Compound 283], for which the “IL-17A/A inhibition (pIC50)” value is listed as “A (compounds having a pIC50 of greater than or equal 8 as A)”.

Regarding `CCC(=O)NC(Cc1ccc(NC(=O)[C@@H](NC(=O)c2ccnn2CC)C2CCCCC2)c(F)c1)C(=O)N1CCN2CCOCC2C1` (stereo partly drawn) [Compound 693], the IC50 was 100 to 10000 nM.

As to `CC(C)n1nccc1C(=O)N[C@H](C(=O)Nc1ccc([C@H](C)[C@@H](NC(=O)c2cnns2)C(=O)N2CCN(C)CC2)cc1F)C1CCCCCC1` [Compound 332], the IC50 was < 10 nM.

In the case of `CCC(=O)N[C@@H](C(=O)N1CCN(C)C[C@@H]1C)[C@@H](C)c1ccc(NC(=O)[C@@H](NC(=O)c2nonc2CC)[C@H]2CC[C@H](C)CC2)c(F)c1` [Compound 456], the IC50 was < 10 nM.

`CCC(=O)N[C@H](Cc1ccc(NC(=O)[C@@H](NC(=O)c2cc(Cl)nn2C)C2CCCCC2)c(F)c1)C(=O)N1CCN(C)CC1` [Compound 765]: the IC50 was 100 to 10000 nM.

As to `CCn1nccc1C(=O)N[C@H](C(=O)Nc1ccc([C@H](C)[C@@H](NC(=O)c2cn[nH]c2)C(=O)N2CCN(C)CC2)cc1F)C1CCCCC1` [Compound 677], the IC50 is 100 to 10000 nM.

For `CC(C)n1nccc1C(=O)N[C@H](C(=O)Nc1ccc([C@H](C)[C@@H](NC(=O)NC2CC2)C(=O)N2CCN(C)CC2)cc1F)C1CCCCCC1` [Compound 339], the IC50 was < 10 nM.

For `CCC(=O)N[C@H](Cc1ccc(NC(=O)[C@@H](NC(=O)C(F)(F)c2ccccc2)C2CCCCC2)c(F)c1)C(=O)N1CCN(C)CC1` [Compound 204], the IC50 is 100 to 10000 nM.

`CCC(=O)N[C@@H](C(=O)N1CCOCC1)[C@@H](C)c1ccc(NC(=O)[C@@H](NC(=O)C(F)(F)c2cccc(C#N)c2)C2CCCCCC2)c(F)c1` [Compound 349]: the IC50 is < 10 nM.

With `CCC(=O)N[C@@H](C(=O)N1C[C@@H](C)N(C)[C@H](C)C1)[C@@H](C)c1ccc(NC(=O)[C@@H](NC(=O)c2nonc2CC)[C@H]2CC[C@H](C)CC2)c(F)c1` [Compound 451], the IC50 is < 10 nM.

Regarding `CCn1nccc1C(=O)N[C@H](C(=O)Nc1ccc([C@H](C)[C@@H](NC(=O)C(C)(F)F)C(=O)N2CCN(C)[C@H](C)C2)cc1F)[C@H]1CC[C@H](C)CC1` [Compound 480], the IC50 is < 10 nM.

For the molecule `CCC(=O)N[C@@H](C(=O)N1CCS(=O)(=O)CC1)[C@@H](C)c1ccc(NC(=O)[C@@H](NC(=O)C(F)(F)c2cccc(C#N)c2)C2CCCCC2)c(F)c1` [Compound 365], the IC50 was 10 to 100 nM.

For the molecule `CCC(=O)N[C@H](Cc1ccc(NC(=O)[C@H](Cc2ccccc2F)NC(=O)c2ccnn2CC)c(F)c1)C(=O)N1CCN(C)CC1` [Compound 725], the “IL-17A/A inhibition (pIC50)” value was “X2b (compounds were evaluated up to 1 uM and inhibited activity at 1 uM by less than 20%)”.

As for `CCn1nccc1C(=O)N[C@H](C(=O)Nc1ccc([C@H](C)[C@@H](NC(=O)c2conc2C2CCNCC2)C(=O)N2CCC(C)(O)CC2)cc1F)[C@H]1CC[C@H](C)CC1` [Compound 442], the IC50 was 10 to 100 nM.

Take `CCC(=O)N[C@@H](C(=O)N1CCN(C)CC1)[C@@H](C)c1ccc(NC(=O)C(NC(=O)c2ccnn2CC)C(C)c2ccc(C)cc2)c(F)c1` (single isomer, unassigned) [Compound 294]: the IC50 is 10 to 100 nM.

As to `CC(C)c1nonc1C(=O)N[C@H](C(=O)Nc1ccc([C@H](C)[C@@H](NC(=O)c2cnns2)C(=O)N2CCN(C)CC2)cc1F)[C@H]1CC[C@H](C)CC1` [Compound 550], the IC50 is < 10 nM.

`CCC(=O)N[C@@H](C(=O)N1CCN(C)CC1)[C@@H](C)c1ccc(NC(=O)C(NC(=O)c2nonc2CC)C(C)C2CCC(F)(F)CC2)c(F)c1` (single isomer, unassigned) [Compound 588]: the “IL-17A/A inhibition (pIC50)” value is “X3b (compounds were evaluated up to 0.3 uM and inhibited activity at 0.3 uM by less than 20%)”.

As to `CCn1nccc1C(=O)N[C@H](C(=O)Nc1ccc([C@H](C)[C@@H](NC(=O)CC2CC2)C(=O)N2CCN(Cc3ccccc3)CC2)cc1F)[C@H]1CC[C@H](C)CC1` [Compound 443], the IC50 was < 10 nM.

Consider `CCC(=O)N[C@@H](C(=O)N1CCN(C)CC1)[C@@H](C)c1ccc(NC(=O)C(NC(=O)C(F)(F)c2cccc(C#N)c2)C2CCCC2)c(F)c1` (stereo partly drawn) [Compound 292], for which the IC50 is 10 to 100 nM.

For the molecule `CCC(=O)N[C@@H](C(=O)N1CCN(C(C)(C)C)CC1)[C@@H](C)c1ccc(NC(=O)[C@@H](NC(=O)c2ccnn2CC)[C@H]2CC[C@H](C)CC2)c(F)c1` [Compound 420], the IC50 was < 10 nM.

Consider `CCC(=O)N[C@H](Cc1ccc(NC(=O)[C@@H](NC(=O)c2ccnn2CC)C2CCCCC2)c(F)c1)C(=O)N1CCN(C)CC1` [Compound 645], for which the IC50 is 100 to 10000 nM.

Regarding `CCC(=O)N[C@@H](C(=O)N1CCN(C)CC1)[C@@H](C)c1ccc(NC(=O)[C@@H](NC(=O)c2nonc2CC)[C@H]2CC[C@H](C)CC2)c(F)c1` [Compound 278], the IC50 was < 10 nM.

For the molecule `CCC(=O)N[C@H](Cc1ccc(NC(=O)[C@@H](NC(=O)c2ccnn2CC)C2CCCCC2)c(F)c1)C(=O)N1CCCN(C)CC1` [Compound 760], the IC50 was 100 to 10000 nM.

For `CCC(=O)N[C@H](Cc1ccc(NC(=O)[C@@H](NC(=O)c2ccnn2CC)C2CCCCC2)c(F)c1)C(=O)N1CCC(C)(O)CC1` [Compound 382], the IC50 was 10 to 100 nM.

As to `CCn1nccc1C(=O)N[C@H](C(=O)Nc1ccc([C@H](C)[C@@H](NC(=O)c2cncs2)C(=O)N2CCN(C)CC2)cc1F)C1CCCCC1` [Compound 303], the IC50 was 10 to 100 nM.

With `CCC(=O)N[C@H](Cc1ccc(NC(=O)[C@H](Cc2cc(C)cc(C)c2)NC(=O)c2ccnn2CC)c(F)c1)C(=O)N1CCN(C)CC1` [Compound 727], the “IL-17A/A inhibition (pIC50)” value is “X2b (compounds were evaluated up to 1 uM and inhibited activity at 1 uM by less than 20%)”.

For `CCC(=O)N[C@H](Cc1ccc(NC(=O)[C@@H](NC(=O)C(F)(F)c2ccc(C)nc2)C2CCCCC2)c(F)c1)C(=O)N1CCN(C)CC1` [Compound 208], the IC50 is 100 to 10000 nM.

Turning to `CCC(=O)N[C@@H](C(=O)N1CC(N(C)C)C1)[C@@H](C)c1ccc(NC(=O)[C@@H](NC(=O)c2ccnn2CC)C2CCCCCC2)c(F)c1` [Compound 356], the IC50 is 10 to 100 nM.

Consider `CCC(=O)N[C@H](Cc1ccc(NC(=O)[C@@H](NC(=O)c2c(CO)noc2C)C2CCCCC2)c(F)c1)C(=O)N1CCN(C)CC1` [Compound 777], for which the “IL-17A/A inhibition (pIC50)” value is “X1b (compounds were evaluated up to 10 uM and inhibited activity at 10 uM by less than 20%)”.
